Usually Ki stands for a measure of affinity in units of concentration, obtained from inhibition or displacement. Low values mean tighter binding, high ones weaker binding.

Among the data in ChEMBL document CHEMBL1126719, “The solution conformation of (D)Phe-Pro-containing peptides: implications on the activity of Ac-(D)Phe-Pro-boroArg-OH, a potent thrombin inhibitor” (J Med Chem, 1993) are Ki values, retold here.

The experiment has as its target Prothrombin (Homo sapiens, UniProt P00734). Kind of experiment: Inhibition constant for binding with thrombin was determined.
Consider `CC(C)(C)OC(=O)N[C@H](Cc1ccccc1)C(=O)NCC(=O)NC(CCCN=C(N)N)B(O)O` (stereo not given in full), for which the affinity corresponds to a Ki of 0.4 nM. `CC(C)(C)OC(=O)N[C@H](Cc1ccccc1)C(=O)N1CCC[C@H]1C(=O)NC(CCCN=C(N)N)B(O)O` (stereo not given in full) came in with an inhibition constant Ki of 0.004 nM. In the case of `CC(=O)N[C@H](Cc1ccccc1)C(=O)NCC(=O)NC(CCCN=C(N)N)B(O)O` (stereo not given in full) it was 4.3 nM. For `CC(=O)N1CCC[C@H]1C(=O)NC(CCCN=C(N)N)B(O)O` (stereo not given in full) the value was 3.3 nM; for `CC(=O)NCC(=O)NC(CCCN=C(N)N)B(O)O` (stereo not given), 26 nM.
